Reference: US12187723B2 (BRISTOL-MYERS SQUIBB COMPANY, priority 2019, dated 2025)

Legend:
[1] = target: T1, human TLR9 (Homo sapiens, UniProt Q9NR96); experiment: TLR9 inhibition reporter assay (HEK-Blue SEAP); type: cell-based; details: HEK-Blue cells overexpressing human TLR9, ODN2006 5 nM, 22 hour incubation
T1 construct: host or cells: HEK-Blue cells
T1 sequence (Q9NR96 26-1032): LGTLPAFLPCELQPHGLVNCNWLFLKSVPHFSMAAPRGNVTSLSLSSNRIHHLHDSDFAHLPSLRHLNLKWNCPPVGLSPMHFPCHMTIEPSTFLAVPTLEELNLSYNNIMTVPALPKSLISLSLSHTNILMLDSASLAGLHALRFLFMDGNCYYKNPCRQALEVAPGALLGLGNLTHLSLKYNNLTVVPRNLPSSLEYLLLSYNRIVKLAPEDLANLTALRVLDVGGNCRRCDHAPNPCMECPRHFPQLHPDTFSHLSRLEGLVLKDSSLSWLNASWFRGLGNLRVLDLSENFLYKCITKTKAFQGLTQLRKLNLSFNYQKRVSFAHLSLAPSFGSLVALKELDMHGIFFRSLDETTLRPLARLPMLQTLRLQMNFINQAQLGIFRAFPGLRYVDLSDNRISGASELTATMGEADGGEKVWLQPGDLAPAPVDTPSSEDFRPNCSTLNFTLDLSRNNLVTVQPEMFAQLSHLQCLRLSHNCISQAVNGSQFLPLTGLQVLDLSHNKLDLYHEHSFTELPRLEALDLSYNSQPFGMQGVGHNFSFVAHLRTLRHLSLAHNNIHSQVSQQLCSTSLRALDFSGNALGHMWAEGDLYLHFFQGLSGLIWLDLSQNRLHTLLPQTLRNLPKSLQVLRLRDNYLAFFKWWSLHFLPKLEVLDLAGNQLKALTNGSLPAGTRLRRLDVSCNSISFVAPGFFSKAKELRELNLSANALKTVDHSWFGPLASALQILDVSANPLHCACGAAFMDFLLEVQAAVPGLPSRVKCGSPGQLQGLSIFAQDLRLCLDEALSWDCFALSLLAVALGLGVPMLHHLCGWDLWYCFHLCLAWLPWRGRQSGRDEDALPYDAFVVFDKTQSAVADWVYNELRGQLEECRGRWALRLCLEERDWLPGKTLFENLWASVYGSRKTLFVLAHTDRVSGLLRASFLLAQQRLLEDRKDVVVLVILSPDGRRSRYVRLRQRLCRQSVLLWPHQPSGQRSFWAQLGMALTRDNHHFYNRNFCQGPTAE
In short: (§1)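 HEK-Blue cells overexpressing human TLR7, TLR8 or TLR9 carry a SEAP reporter driven by NF-κB/AP-1 sites. Compounds (0.05 nM–50 μM) were preincubated 30 min at room temperature, then cells were stimulated with gardiquimod 7.5 μM (TLR7), R848 15.9 μM (TLR8) or ODN2006 5 nM (TLR9) for 22 h at 37 °C.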

[2] = target: T2, human TLR8 (Homo sapiens, UniProt Q9NR97); experiment: TLR8 inhibition reporter assay (HEK-Blue SEAP); type: cell-based; details: HEK-Blue cells overexpressing human TLR8, R848 15.9 μM, 22 hour incubation
T2 construct: host or cells: HEK-Blue cells
T2 sequence (Q9NR97 27-1041): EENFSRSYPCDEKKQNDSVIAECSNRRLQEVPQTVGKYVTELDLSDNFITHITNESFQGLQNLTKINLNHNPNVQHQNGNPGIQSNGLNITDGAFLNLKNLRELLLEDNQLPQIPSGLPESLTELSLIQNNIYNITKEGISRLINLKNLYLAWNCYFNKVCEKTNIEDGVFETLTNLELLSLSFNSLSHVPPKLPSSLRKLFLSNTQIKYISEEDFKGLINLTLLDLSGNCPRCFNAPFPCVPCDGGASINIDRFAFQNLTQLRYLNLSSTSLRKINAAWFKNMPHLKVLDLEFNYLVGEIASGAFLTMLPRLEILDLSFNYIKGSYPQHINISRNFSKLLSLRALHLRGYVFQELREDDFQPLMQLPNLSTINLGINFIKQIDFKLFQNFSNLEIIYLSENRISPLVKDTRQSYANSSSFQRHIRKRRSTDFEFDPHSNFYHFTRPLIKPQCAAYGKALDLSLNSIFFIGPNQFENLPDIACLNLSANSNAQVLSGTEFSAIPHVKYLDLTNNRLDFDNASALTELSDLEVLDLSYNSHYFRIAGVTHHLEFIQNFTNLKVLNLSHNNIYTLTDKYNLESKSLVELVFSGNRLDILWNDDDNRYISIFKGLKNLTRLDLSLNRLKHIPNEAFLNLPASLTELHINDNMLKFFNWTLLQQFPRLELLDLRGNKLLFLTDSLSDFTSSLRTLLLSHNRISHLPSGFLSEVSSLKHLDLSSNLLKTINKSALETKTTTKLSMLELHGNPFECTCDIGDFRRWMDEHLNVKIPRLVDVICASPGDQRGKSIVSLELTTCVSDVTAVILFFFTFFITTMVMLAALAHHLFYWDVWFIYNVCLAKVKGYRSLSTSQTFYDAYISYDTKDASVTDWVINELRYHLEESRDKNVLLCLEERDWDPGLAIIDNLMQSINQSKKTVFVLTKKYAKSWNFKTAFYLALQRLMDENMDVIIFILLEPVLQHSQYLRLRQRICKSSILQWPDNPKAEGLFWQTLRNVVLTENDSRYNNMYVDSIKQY
In short: as §1

## COc1cc(-c2cc3[nH]c(=O)n([C@H]4CC[C@@H](NCC(C)C)CC4)c3cc2C)cn2ncnc12 [Example 61, 1-((1s,4s)-4-(isobutylamino)cyclohexyl)-5-(8-methoxy-[1,2,4]triazolo[1,5-a]pyridin-6-yl)-6-methyl-1,3-dihydro-2H-benzo[d]imidazol-2-one]
[1]
  IC50: 5.51 µM
[2]
  IC50: 0.00235 µM

## CCC(CC)CN1CCC[C@@H](n2c(=O)[nH]c3cc(-c4cc(OC)c5ncnn5c4)c(C)cc32)C1 [Example 73, (R)-1-(1-(2-ethylbutyl)piperidin-3-yl)-5-(8-methoxy-[1,2,4]triazolo[1,5-a]pyridin-6-yl)-6-methyl-1,3-dihydro-2H-benzo[d]imidazol-2-one]
[1]
  IC50: 8.07 µM
[2]
  IC50: 0.0736 µM

## CCC(C)N[C@H]1CC[C@@H](n2c(=O)[nH]c3cc(-c4cc(C)c5ncnn5c4)c(C)cc32)CC1 (stereo partly drawn) [Example 34, 1-((1s,4s)-4-(sec-butylamino)cyclohexyl)-6-methyl-5-(8-methyl-[1,2,4]triazolo[1,5-a]pyridin-6-yl)-1,3-dihydro-2H-benzo[d]imidazol-2-one]
[1]
  IC50: 3.34 µM
[2]
  IC50: 0.00465 µM

## COc1cc(-c2ccc3c(c2)[nH]c(=O)n3C2CCN(C)CC2)cn2ncnc12 [Example 74, 5-(8-methoxy-[1,2,4]triazolo[1,5-a]pyridin-6-yl)-1-(1-methylpiperidin-4-yl)-1,3-dihydro-2H-benzo[d]imidazol-2-one]
[1]
  IC50: 0.365 µM
[2]
  IC50: > 3.13 µM

## COc1cc(-c2cc3[nH]c(=O)n(C4CCN(C)CC4)c3cc2C)cn2ncnc12 [Example 1, 5-(8-methoxy-[1,2,4]triazolo[1,5-a]pyridin-6-yl)-6-methyl-1-(1-methylpiperidin-4-yl)-1,3-dihydro-2H-benzo[d]imidazol-2-one]
[1]
  IC50: 0.278 µM
[2]
  IC50: 0.0541 µM

## COc1cc(-c2ccc3c(c2)[nH]c(=O)n3C2CCN(CC3CCOC3)CC2)cn2ncnc12 (stereo not drawn) [Example 82, 5-(8-methoxy-[1,2,4]triazolo[1,5-a]pyridin-6-yl)-1-(1-((tetrahydrofuran-3-yl)methyl)piperidin-4-yl)-1,3-dihydro-2H-benzo[d]imidazol-2-one]
[1]
  IC50: 4.77 µM
[2]
  IC50: 2.6 µM

## COc1cc(-c2cc3[nH]c(=O)n([C@@H]4CCCN(C5COC5)C4)c3cc2C)cn2ncnc12 [Example 72, (R)-5-(8-methoxy-[1,2,4]triazolo[1,5-a]pyridin-6-yl)-6-methyl-1-(1-(oxetan-3-yl)piperidin-3-yl)-1,3-dihydro-2H-benzo[d]imidazol-2-one]
[1]
  IC50: 45.8 µM
[2]
  IC50: 0.249 µM

## Cc1cc2c(cc1-c1cc(C)c3ncnn3c1)[nH]c(=O)n2[C@@H]1CCCN(CC2CCOCC2)C1 [Example 41, (R)-6-methyl-5-(8-methyl-[1,2,4]triazolo[1,5-a]pyridin-6-yl)-1-(1-((tetrahydro-2H-pyran-4-yl)methyl)piperidin-3-yl)-1,3-dihydro-2H-benzo[d]imidazol-2-one]
[1]
  IC50: 8.12 µM
[2]
  IC50: 0.0271 µM

## COc1cc(-c2cc3[nH]c(=O)n([C@@H]4CCCN(C(C)C)C4)c3cc2C)cn2ncnc12 [Example 53, (R)-1-(1-isopropylpiperidin-3-yl)-5-(8-methoxy-[1,2,4]triazolo[1,5-a]pyridin-6-yl)-6-methyl-1,3-dihydro-2H-benzo[d]imidazol-2-one]
[1]
  IC50: 3.75 µM
[2]
  IC50: 0.0359 µM

## Cc1cc2c(cc1-c1cc(C)c3ncnn3c1)[nH]c(=O)n2C1CCN(CC(=O)N(C)C)CC1 [Example 91, N,N-dimethyl-2-(4-(6-methyl-5-(8-methyl-[1,2,4]triazolo[1,5-a]pyridin-6-yl)-2-oxo-2,3-dihydro-1H-benzo[d]imidazol-1-yl)piperidin-1-yl)acetamide]
[1]
  IC50: > 50 µM
[2]
  IC50: > 3.13 µM

## Cc1cc2c(cc1-c1cc(C)c3ncnn3c1)[nH]c(=O)n2C1CCN(CC(=O)N(C)C)CC1 [Example 89, N,N-dimethyl-2-(4-(6-methyl-5-(8-methyl-[1,2,4]triazolo[1,5-a]pyridin-6-yl)-2-oxo-2,3-dihydro-1H-benzo[d]imidazol-1-yl)piperidin-1-yl)acetamide]
[1]
  IC50: 29 µM
[2]
  IC50: 0.105 µM

## COc1cc(-c2cc3[nH]c(=O)n(C4CCN(CC(=O)N(C)C)CC4)c3cc2C)cn2ncnc12 [Example 86, 2-(4-(5-(8-methoxy-[1,2,4]triazolo[1,5-a]pyridin-6-yl)-6-methyl-2-oxo-2,3-dihydro-1H-benzo[d]imidazol-1-yl)piperidin-1-yl)-N,N-dimethylacetamide]
[1]
  IC50: 4.93 µM
[2]
  IC50: 0.359 µM

## Cc1cc2c(cc1-c1cc(C)c3ncnn3c1)[nH]c(=O)n2[C@H]1CCCN(CC(=O)N(C)C)C1 [Example 93, (S)—N,N-dimethyl-2-(3-(6-methyl-5-(8-methyl-[1,2,4]triazolo[1,5-a]pyridin-6-yl)-2-oxo-2,3-dihydro-1H-benzo[d]imidazol-1-yl)piperidin-1-yl)acetamide]
[1]
  IC50: 12.6 µM
[2]
  IC50: 0.105 µM

## Cc1cc2c(cc1-c1cc(C)c3ncnn3c1)[nH]c(=O)n2[C@@H]1CCCN(CCC(C)(C)C)C1 [Example 44, (R)-1-(1-(3,3-dimethylbutyl)piperidin-3-yl)-6-methyl-5-(8-methyl-[1,2,4]triazolo[1,5-a]pyridin-6-yl)-1,3-dihydro-2H-benzo[d]imidazol-2-one]
[1]
  IC50: 4.72 µM
[2]
  IC50: 0.049 µM

## COc1cc(-c2cc3[nH]c(=O)n([C@@H]4CCCN(CC5CC5)C4)c3cc2C)cn2ncnc12 [Example 55, (R)-1-(1-(cyclopropylmethyl)piperidin-3-yl)-5-(8-methoxy-[1,2,4]triazolo[1,5-a]pyridin-6-yl)-6-methyl-1,3-dihydro-2H-benzo[d]imidazol-2-one]
[1]
  IC50: 5.55 µM
[2]
  IC50: 0.0195 µM

## CCN[C@H]1CC[C@@H](n2c(=O)[nH]c3cc(-c4cc(OC)c5ncnn5c4)c(C)cc32)CC1 [Example 63, 1-((1s,4s)-4-(ethylamino)cyclohexyl)-5-(8-methoxy-[1,2,4]triazolo[1,5-a]pyridin-6-yl)-6-methyl-1,3-dihydro-2H-benzo[d]imidazol-2-one]
[1]
  IC50: 10 µM
[2]
  IC50: 0.0215 µM

## CCCN[C@H]1CC[C@@H](n2c(=O)[nH]c3cc(-c4cc(OC)c5ncnn5c4)c(C)cc32)CC1 [Example 64, 5-(8-methoxy-[1,2,4]triazolo[1,5-a]pyridin-6-yl)-6-methyl-1-((1s,4s)-4-(propylamino)cyclohexyl)-1,3-dihydro-2H-benzo[d]imidazol-2-one]
[1]
  IC50: 5.49 µM
[2]
  IC50: 0.00176 µM

## COc1cc(-c2ccc3c(c2)[nH]c(=O)n3C2CCN(CC3CCOCC3)CC2)cn2ncnc12 [Example 78, 5-(8-methoxy-[1,2,4]triazolo[1,5-a]pyridin-6-yl)-1-(1-((tetrahydro-2H-pyran-4-yl)methyl)piperidin-4-yl)-1,3-dihydro-2H-benzo[d]imidazol-2-one]
[1]
  IC50: 2.85 µM
[2]
  IC50: 1.38 µM
